Reference: article PMC11648681, “Development of machine learning models for the prediction of the skin sensitization potential of cosmetic compounds” (PeerJ, 2024)
“And” between values parts separate entries of the source, which are not always exact repeats. Identical values can stand only once. Like-named read-outs stand apart in the source and are kept apart here.

Tests used:
[1] = tested on: THP-1 cells; test: CCK-8 cell viability of THP-1 cells after 48 h compound treatment in HaCaT/THP-1 co-culture; format: cell-based, human; settings: 48 h
Method: (§1) The co-culture system was set up according to the following described method. […] THP-1 cells were collected, centrifuged, and re-suspended in fresh RPMI-1640 medium supplemented with 10% FBS at 2 × 10^6 cells/mL. Then cells are distributed into HaCaT-seeded 96 wells plate with 80 μL (1.6 × 10^5 cells/well).
(§2) The compounds listed in Table 1 were dissolved in DMSO to create stock solutions with a concentration of 500 mg/mL. Eleven concentrations were subsequently prepared using two-fold serial dilutions. These stock solutions were then further diluted 250-fold in RPMI-1640 + 10% FBS medium. Finally, 80 μL of the prepared solutions were added 1:1 to the treated 96-well plates and incubated for 48 h at 37 °C and 5% CO2.
(§3) After 48 h of treatment, the treated cells were collected 100 μL cells per well. The supernatant medium was added 10 μL of CCK-8 (Life-iLab, Shanghai, China) solution to each well and incubated the plate in the incubator for 2–4 h. THP-1 cell viability was determined using standard calculation methods.
(§4) The cytotoxicity of 15 test compounds listed in Table 1 was assessed using THP-1 cells across a concentration range of 1,000 to 3.9 μg/mL. Cell viability was assessed after 48 h of treatment using the CCK-8 assay.

[2] = as above; format: cell-based, human; settings: human; for IC50 at 48 h: THP-1 cells, 48 h treatment, CCK-8, range 1,000 to 3.9 μg/mL, read-out: IC50 (cytotoxicity)
Method: as §1, §2, §3, §4

[3] = 0.976563 μg/mL, THP-1, individual replicate values
[4] = 1.95312 μg/mL, THP-1, individual replicate values
[5] = 3.90625 μg/mL, THP-1, individual replicate values
[6] = 7.8125 μg/mL, THP-1, individual replicate values
[7] = 15.625 μg/mL, THP-1, individual replicate values
[8] = 31.25 μg/mL, THP-1, individual replicate values
[9] = 62.5 μg/mL, THP-1, individual replicate values
[10] = 125 μg/mL, THP-1, individual replicate values
[11] = 250 μg/mL, THP-1, individual replicate values
[12] = 500 μg/mL, THP-1, individual replicate values
[13] = 1000 μg/mL, THP-1, individual replicate values
[14] = THP-1 cells, CCK-8, single (not double) concentration
[15] = THP-1 cells in co-culture with HaCaT cells, 48 h, THP-1, individual replicate values
[16] = THP-1 cells in co-culture with HaCaT cells, 31.25 μg/mL, 48 h, THP-1, individual replicate values, read-out: Cell viability
[17] = 48 h, THP-1, individual replicate values
[18] = THP-1 cells in co-culture with HaCaT cells

SMILES: O=c1c(-c2ccccc2)c1-c1ccccc1 [diphenylcyclopropenone, Diphenylcyclopropenone]
- Cell viability [1, 3]: 95.9291%
- Cell viability [1, 4]: 135.468%
- Cell viability [1, 5]: 42.1135%
- Cell viability [1, 6]: 16.9362%
- Cell viability [1, 7]: 18.4255% and 40.305%
- Cell viability [1, 8]: 15.5674%
- Cell viability [1, 9]: 19.5248%
- Cell viability [1, 10]: 23.4184%
- Cell viability [1, 11]: 23.9858%
- Cell viability [1, 12]: 31.4681%
- Cell viability [1, 13]: 33.1277%
- final concentration used (highest concentration that maintained at least 80% cell viability) [1, 14]: 0.98 µg/mL
- viability at 48 h, 0.976563 μg/mL [2, 15]: 95.4%
- viability at 48 h, 1.95312 μg/mL [2, 15]: 124%
- viability at 48 h, 3.90625 μg/mL [2, 15]: 36.8%
- viability at 48 h, 7.8125 μg/mL [2, 15]: 21.2%
- viability at 48 h, 31.25 μg/mL [2, 16]: 25.4%
- viability at 48 h, 62.5 μg/mL [2, 15]: 26.6%
- viability at 48 h, 125 μg/mL [2, 15]: 28.2%
- viability at 48 h, 250 μg/mL [2, 15]: 29.3%
- viability at 48 h, 500 μg/mL [2, 15]: 30.3%
- viability at 48 h, 1000 μg/mL [2, 15]: 30.7%

SMILES: C=CCc1ccc(O)c(OC)c1 [eugenol, Eugenol]
- Cell viability [1, 3]: 95.2766%
- Cell viability [1, 4]: 82.8227%
- Cell viability [1, 5]: 95.5106%
- Cell viability [1, 6]: 87.9007%
- Cell viability [1, 7]: 89.6454%
- Cell viability [1, 9]: 83.0993%
- Cell viability [1, 10]: 50.2837%
- Cell viability [1, 11]: 13.5816%
- Cell viability [1, 12]: 12.3688%
- Cell viability [1, 13]: 8.652% and 19.4894%
- final concentration used (highest concentration that maintained at least 80% cell viability) ([1]; human): 31.2 µg/mL
- Cell viability ([1]; human, 31.25 μg/mL): 101.56%
- viability at 48 h, 0.976563 μg/mL [2, 17]: 96.1%
- viability at 48 h, 1.95312 μg/mL [2, 17]: 85.9%
- viability at 48 h, 3.90625 μg/mL [2, 17]: 94%
- viability at 48 h, 7.8125 μg/mL [2, 17]: 89.2%
- viability at 48 h, 15.625 μg/mL [2, 17]: 84%
- viability at 48 h, 62.5 μg/mL [2, 17]: 96.6%
- viability at 48 h, 125 μg/mL [2, 17]: 54.7%
- viability at 48 h, 250 μg/mL [2, 17]: 13.4%
- viability at 48 h, 500 μg/mL [2, 17]: 19.5%
- viability at 48 h, 31.25 μg/mL ([2]; Cell viability): 89.2%

SMILES: OCC(O)CO [glycerol, Glycerol]
- Cell viability ([1]; human, 31.25 μg/mL): 116.476%
- viability at 48 h, 31.25 μg/mL ([2]; Cell viability): 105%
- viability at 48 h, 0.976563 μg/mL [2, 15]: 87.7%
- viability at 48 h, 1.95312 μg/mL [2, 15]: 93.5%
- viability at 48 h, 3.90625 μg/mL [2, 15]: 79.1%
- viability at 48 h, 15.625 μg/mL [2, 15]: 93.7%
- viability at 48 h, 62.5 μg/mL [2, 15]: 110%
- viability at 48 h, 125 μg/mL [2, 15]: 90.6%
- viability at 48 h, 250 μg/mL [2, 15]: 93.5%
- viability at 48 h, 500 μg/mL [2, 15]: 93.4%
- viability at 48 h, 1000 μg/mL [2, 15]: 98.4%
- IC50 at 48 h [2, 18]: > 1000 µg/mL

SMILES: O=CCc1ccccc1 [phenylacetaldehyde, Phenylacetaldehyde]
- Cell viability [1, 4]: 84.3308%
- Cell viability [1, 5]: 77.9774%
- Cell viability [1, 6]: 74.6917%
- Cell viability [1, 7]: 73.3083%
- Cell viability [1, 8]: 14.7368%
- Cell viability [1, 9]: 15.5263%
- Cell viability [1, 10]: 17.3609%
- Cell viability [1, 11]: 19.4737%
- Cell viability [1, 12]: 22.2782%
- Cell viability [1, 13]: 20.8421%
- final concentration used (highest concentration that maintained at least 80% cell viability) [1, 14]: 7.8 µg/mL
- viability at 48 h, 0.976563 μg/mL [2, 15]: 84.7%
- viability at 48 h, 1.95312 μg/mL [2, 15]: 85.6%
- viability at 48 h, 3.90625 μg/mL [2, 15]: 84.7%
- viability at 48 h, 7.8125 μg/mL [2, 15]: 80.6%
- viability at 48 h, 15.625 μg/mL [2, 15]: 74.2%
- viability at 48 h, 31.25 μg/mL [2, 16]: 14.8%
- viability at 48 h, 62.5 μg/mL [2, 15]: 15.8%
- viability at 48 h, 125 μg/mL [2, 15]: 17%
- viability at 48 h, 250 μg/mL [2, 15]: 19.5%
- viability at 48 h, 500 μg/mL [2, 15]: 21.5%
- viability at 48 h, 1000 μg/mL [2, 15]: 18.6%

SMILES: Oc1cccc(O)c1 [resorcinol, Resorcinol]
- Cell viability [1, 3]: 87.3677%
- Cell viability [1, 4]: 103.314% and 82.4843%
- Cell viability [1, 5]: 80.4798%
- Cell viability [1, 6]: 98.5964%
- Cell viability [1, 7]: 93.1569%
- Cell viability [1, 9]: 79.0942%
- Cell viability [1, 10]: 70.9013%
- Cell viability [1, 11]: 60.5067%
- Cell viability [1, 12]: 57.2511%
- Cell viability [1, 13]: 56.1435%
- Cell viability ([1]; human, 31.25 μg/mL): 84.1435%
- viability at 48 h, 31.25 μg/mL ([2]; Cell viability): 81.4%
- viability at 48 h, 0.976563 μg/mL [2, 15]: 86.4%
- viability at 48 h, 3.90625 μg/mL [2, 15]: 99.3%
- viability at 48 h, 7.8125 μg/mL [2, 15]: 95.8%
- viability at 48 h, 15.625 μg/mL [2, 15]: 86.8%
- viability at 48 h, 62.5 μg/mL [2, 15]: 68%
- viability at 48 h, 125 μg/mL [2, 15]: 66.2%
- viability at 48 h, 250 μg/mL [2, 15]: 59.3%
- viability at 48 h, 500 μg/mL [2, 15]: 56.3%
- viability at 48 h, 1000 μg/mL [2, 15]: 58.1%

SMILES: CC(C)CCCC(C)CCCC(C)CCCCC(C)CCCC(C)CCCC(C)C (centres unmarked) [squalane, Squalane]
- Cell viability [1, 3]: 122.038%
- Cell viability [1, 4]: 117.419%
- Cell viability [1, 5]: 88.2476%
- Cell viability [1, 6]: 84.8%
- Cell viability [1, 7]: 88.8667%
- Cell viability [1, 8]: 81.4095%
- Cell viability [1, 10]: 94.8381%
- Cell viability [1, 11]: 87.1048%
- Cell viability [1, 12]: 84.4381%
- Cell viability [1, 13]: 95.019%
- viability at 48 h, 3.90625 μg/mL [2, 15]: 85.4%
- viability at 48 h, 7.8125 μg/mL [2, 15]: 85%
- viability at 48 h, 15.625 μg/mL [2, 15]: 78.7%
- viability at 48 h, 31.25 μg/mL [2, 16]: 89.3%
- viability at 48 h, 62.5 μg/mL [2, 15]: 87.1%
- viability at 48 h, 125 μg/mL [2, 15]: 98%
- viability at 48 h, 250 μg/mL [2, 15]: 83.7%
- viability at 48 h, 500 μg/mL [2, 15]: 82%
- viability at 48 h, 1000 μg/mL [2, 15]: 91.2%
- IC50 at 48 h [2, 18]: > 1000 µg/mL
